Data on one compound can be found in US6653300B2, “Pyrazole compounds useful as protein kinase inhibitors” (Vertex Pharmaceuticals Incorporated, priority 2000, dated 2003).

One data set deals with AKT-3 (Homo sapiens, UniProt Q9Y243). Briefly: AKT inhibition assay (coupled enzyme assay). In kind it is biochemical. The settings on record: 45 nM AKT, 170 μM ATP, 30° C. The protocol:
Compounds were screened for their ability to inhibit AKT using a standard coupled enzyme assay (Fox et al., Protein Sci., (1998) 7, 2249). Assays were carried out in a mixture of 100 mM HEPES 7.5, 10 mM MgCl2, 25 mM NaCl, 1 mM DTT and 1.5% DMSO. Final substrate concentrations in the assay were 170 μM ATP (Sigma Chemicals) and 200 μM peptide (RPRAATF, American Peptide, Sunnyvale, Calif.). Assays were carried out at 30° C. and 45 nM AKT. Final concentrations of the components of the coupled enzyme system were 2.5 mM phosphoenolpyruvate, 300 μM NADH, 30 μg/ML pyruvate kinase and 10 μg/ml lactate dehydrogenase.
An assay stock buffer solution was prepared containing all of the reagents listed above, with the exception of AKT, DTT, and the test compound of interest. 56 μl of the stock solution was placed in a 384 well plate followed by addition of 1 μl of 2 mM DMSO stock containing the test compound (final compound concentration 30 μM). The plate was preincubated for about 10 minutes at 30° C. and the reaction initiated by addition of 10 μl of enzyme (final concentration 45 nM) and 1 mM DTT. Rates of reaction were obtained using a BioRad Ultramark plate reader (Hercules, Calif.) over a 5 minute read time at 30° C.

A further data set addresses T1, GSK-3β (AA 1-420) (Homo sapiens, UniProt P49841).
T1 construct: GSK-3β (AA 1-420)
Briefly: Ki determination for the inhibition of GSK-3 (coupled enzyme system). In kind it is biochemical. The note with it: 20 μM ATP, 20 nM GSK-3β, 30° C. Put shortly:
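GSK-3β (AA 1-420, 20 nM) was run in a pyruvate kinase/LDH-coupled NADH assay in 100 mM HEPES pH 7.5, 10 mM MgCl2, 25 mM NaCl, 1 mM DTT, 1.5% DMSO, with 300 μM phosphopeptide substrate. Compound (0.002–30 μM) was preincubated 10 min at 30° C, then 20 μM ATP was added.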

The target in another data set is activated ERK2 (Homo sapiens, UniProt P28482). Put plainly: ERK inhibition assay (spectrophotometric coupled-enzyme assay). In kind it is biochemical. The note with it: 10 nM activated ERK2, 65 μM ATP, 30° C.; read-out: Ki values for ERK-2. The protocol:
Compounds were assayed for the inhibition of ERK2 by a spectrophotometric coupled-enzyme assay (Fox et al (1998) Protein Sci 7, 2249).

In the next data set the target is CDK-2/Cyclin A (Homo sapiens, UniProt P24941). Briefly: CDK-2 inhibition assay (coupled enzyme assay). In kind it is biochemical. The note with it: 25 nM CDK-2/Cyclin A, 30° C. As to the method:
Compounds were screened in the following manner for their ability to inhibit CDK-2 using a standard coupled enzyme assay (Fox et al (1998) Protein Sci 7, 2249).
To an assay stock buffer solution containing 0.1M HEPES 7.5, 10 mM MgCl2, 1 mM DTT, 25 mM NaCl, 2.5 mM phosphoenolpyruvate, […], 30 mg/ml pyruvate kinase, 10 mg/ml lactate dehydrogenase, 100 mM ATP, and 100 μM peptide ([…], American Peptide, Sunnyvale, Calif.) was added a DMSO solution of a compound of the present invention to a final concentration of 30 μM. The resulting mixture was incubated at 30° C. for 10 min.
The reaction was initiated by the addition of 10 μL of CDK-2/Cyclin A stock solution to give a final concentration of 25 nM in the assay. The rates of reaction were obtained by monitoring absorbance at 340 nm over a 5-minute read time at 30° C. using a BioRad Ultramark plate reader (Hercules, Calif.). The Ki values were determined from the rate data as a function of inhibitor concentration.

SMILES strings stand for the structures.

AKT-3, sequence (Q9Y243 whole entry, species assumed): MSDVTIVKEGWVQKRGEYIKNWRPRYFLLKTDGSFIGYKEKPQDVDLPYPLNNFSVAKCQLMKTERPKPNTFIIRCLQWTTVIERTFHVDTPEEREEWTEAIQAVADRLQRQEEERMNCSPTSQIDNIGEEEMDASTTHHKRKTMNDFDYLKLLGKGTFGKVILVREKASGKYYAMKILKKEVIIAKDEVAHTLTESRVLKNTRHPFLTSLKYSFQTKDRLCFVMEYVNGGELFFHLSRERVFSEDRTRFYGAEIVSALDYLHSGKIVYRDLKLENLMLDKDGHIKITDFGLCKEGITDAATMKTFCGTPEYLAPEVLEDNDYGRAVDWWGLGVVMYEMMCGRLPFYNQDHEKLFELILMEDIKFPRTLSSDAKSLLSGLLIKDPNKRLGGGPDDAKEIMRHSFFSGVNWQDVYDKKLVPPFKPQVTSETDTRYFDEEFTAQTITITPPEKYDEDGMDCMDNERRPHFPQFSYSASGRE
activated ERK2, sequence (P28482 whole entry): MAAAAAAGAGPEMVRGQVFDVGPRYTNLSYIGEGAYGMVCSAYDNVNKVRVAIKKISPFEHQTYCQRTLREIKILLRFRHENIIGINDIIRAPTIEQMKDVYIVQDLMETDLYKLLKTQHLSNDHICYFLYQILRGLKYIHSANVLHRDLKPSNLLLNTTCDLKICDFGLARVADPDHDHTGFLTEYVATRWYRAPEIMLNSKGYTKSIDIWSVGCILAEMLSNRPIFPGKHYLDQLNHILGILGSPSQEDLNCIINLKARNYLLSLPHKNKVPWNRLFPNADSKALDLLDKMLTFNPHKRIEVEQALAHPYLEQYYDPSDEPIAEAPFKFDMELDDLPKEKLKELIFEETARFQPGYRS
T1 sequence (P49841 whole entry, the tested form may be a part): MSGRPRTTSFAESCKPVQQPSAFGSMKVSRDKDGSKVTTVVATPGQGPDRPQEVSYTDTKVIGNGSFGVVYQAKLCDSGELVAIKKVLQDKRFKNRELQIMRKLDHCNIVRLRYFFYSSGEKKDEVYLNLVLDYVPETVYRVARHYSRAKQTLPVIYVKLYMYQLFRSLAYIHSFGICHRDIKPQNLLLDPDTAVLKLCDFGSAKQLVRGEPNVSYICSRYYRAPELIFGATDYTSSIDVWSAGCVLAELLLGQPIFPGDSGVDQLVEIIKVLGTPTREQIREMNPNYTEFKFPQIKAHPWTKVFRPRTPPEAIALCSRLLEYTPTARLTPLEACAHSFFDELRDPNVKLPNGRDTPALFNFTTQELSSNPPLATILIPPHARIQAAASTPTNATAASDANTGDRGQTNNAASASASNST

As usually defined, the Ki is a measure of affinity in units of concentration, obtained from inhibition or displacement. Usually melting point stands for the temperature of the solid-liquid transition. For `c1ccc2c(Nc3cc(C4CC4)[nH]n3)nc(Nc3ccc4ncsc4c3)nc2c1` [IIc-32, [2-(Benzothiazol-6-ylamino)-quinazolin-4-yl]-(5-cyclopropyl-2H-pyrazol-3-yl)-amine], the melting point was 255 to 256 °C. This compound gave a Ki at AKT-3 of 1000 to 20000 nM. Further, the Ki on GSK-3β (AA 1-420) was < 100 nM. Further, on activated ERK2, the Ki is < 1000 nM. The Ki on CDK-2/Cyclin A is < 1000 nM.
